Converted amounts (≈) assume the structure as drawn.
Tested on: Methicillin-susceptible S. aureus UC®9213
Test: Minimum inhibitory concentration (MIC) by agar dilution
Format: cell-based
Settings: Staphylococcus aureus, UC9213, lowest concentration that inhibits visible growth, read-out: Antibacterial Activity, Minimum Inhibitory Concentration, S.A.
From the text: The isoxazolinone antibacterial agents of this invention have useful activity against a variety of organisms. The in vitro activity of compounds of this invention can be assessed by standard testing procedures such as the determination of minimum inhibitory concentration (MIC) by agar dilution as described in “Approved Standard. Methods for Dilution Anti microbial Susceptibility Tests for Bacteria That Grow Aerobically”, 3rd. ed., published 1993 by the National Committee for Clinical Laboratory Standards, Villanova, Pa., USA. S.A is Methicillin-susceptible S. aureus UC®9213. Minimum inhibitory concentration refers to lowest concentration of drug (μg/mL) that inhibits visible growth of the organism.

Row | Structure (SMILES) | MIC
1 | CN[C@H](CC(C)C)C(=O)N[C@H]1C(=O)N[C@@H](CC(N)=O)C(=O)N[C@H]2C(=O)N[C@H]3C(=O)N[C@H](C(=O)N[C@H](C(=O)O)c4cc(O)cc(O)c4-c4cc3ccc4O)[C@H](O)c3ccc(c(Cl)c3)Oc3cc2cc(c3O[C@@H]2O[C@H](CO)[C@@H](O)[C@H](O)[C@H]2O[C@H]2C[C@](C)(N)[C@H](O)[C@H](C)O2)Oc2ccc(cc2Cl)[C@H]1O [vancomycin] | 1 µg/mL (≈ 0.69 µM)
2 | CC(=O)NCn1cc(-c2ccc3c(c2)CC(C)N3C=O)c(=O)o1 (centres unmarked) [Example 1, N-{[4-(N-formyl-2-methylindolinyl)-5-oxo-isoxazol-2-yl]methyl}acetamide] | 2 µg/mL (≈ 6.34 µM)
